Experimental data reported in US8772235B2, “Compounds having peptides conjugated to bone targeting moieties and methods of making and using thereof” (The Governors of the University of Alberta, priority 2009, dated 2014).

Key:
RAW 264.7 cells = experiment: MTT cytotoxicity on osteoclast precursor RAW 264.7 cells (SMCC series); assay type: cell-based; conditions: 100, 500 and 1000 nM sCT or equivalent, 4 hrs
Description: RAW 264.7 cells (ATCC VA, USA) were seeded on 96 well plates at an initial density of 2×10^4 cells/well and incubated in 200 μl GIBCO High Glucose 1× Dulbecco's Modified Eagle Medium (DMEM) (Invitrogen CA, USA) supplemented with 4.5 g/L D-Glucose, L-Glutamine, 110 mg/L Sodium Pyruvate, 10% heat inactivated fetal bovine serum (FBS) and 1% Penicillin-Streptomycin (10000 U/mL; Invitrogen) in a Thermo Fisher Scientific Water Jacketed CO2 incubator (37° C., 5% CO2).
After 72 hrs, media was replaced by 200 μl basic DMEM media without FBS and incubated for 30 minutes. […] After removing the supernatant and washing twice with phosphate buffer saline, purple formazan crystals formed were dissolved in 200 μl solubilization solution (in vitro toxicology assay kit, # TOX-1, Sigma Aldrich, St. Louis, USA) and the absorbance was measured at 570 nm using microplate reader. Experiment was performed for n=8 and the absorbance of wells containing cells without sCT treatment was considered as 100% viable and used to calculate the relative viability of sCT treated cells.
In MTT assay, mitochondrial dehydrogenases of viable cells cleave the tetrazolium ring of MTT yielding purple formazan crystals which are insoluble in aqueous solutions. They were dissolved in acidified isopropanol and the resulting purple solution was measured spectrophotometrically. […]

[1] = Effect on plasma calcium level in normal rats (PEG series); assay type: in vivo, rat; conditions: 20 IU sCT/kg equivalent, subcutaneous
Description: (§1) Pharmacodynamic response of sCT analogue was evaluated by analyzing plasma calcium concentration in the rat model. Sprague Dawley female rats weighing 230-260 g (about 6 weeks old) were purchased from Charles River, USA and housed at the University of Alberta Animal Holding Unit. All experimental protocols were approved by the Animals Ethics Committee of the University of Alberta. The rats were divided randomly into five groups of 3 animals each and the pharmacodynamic response was assessed following subcutaneous administration of the sCT or analogue equivalent to 20 IU sCT/kg body weight. Rats were anesthetized using Isoflurane inhalation anesthesia and the 200 μl blood samples were obtained in heparinized Eppendorf microtubes before drug injection. Then 100 μl of sCT or equivalent dose in 20 mM Sodium Acetate buffer pH 5 was injected and the blood samples were collected 1, 2, 3 and 4 hrs post injection from jugular vein. Blood plasma was obtained by centrifuging the samples at 5000 rpm for 10 min and collecting the supernatant. Plasma calcium level was assayed by QuantiChrom™ Calcium Assay Kit (BioAssay Systems, CA USA) and the plasma phosphate level was assayed by QuantiChrom™ Phosphate Assay Kit (BioAssay Systems, CA USA).

[2] = Bone mineral specificity: calcium oxalate binding assay; conditions: 1 h, 100 mM phosphate buffer pH 7
Description: (§2) Bone targeting potential of sCT analogue was evaluated by determining the effect of sCT modification (due to chemical coupling) upon its bone mineral affinity. Specific volume of purified sCT analogue solution containing 10 μg of sCT was mixed with 1 mg Hydroxyapatite (HA) in 150 μL 100 mM phosphate buffer (pH 7.0) in microcentrifuge tubes in duplicate to give a final concentration of 66.67 μg/ml sCT. As a reference, control samples were incubated in tubes without HA (i.e., 0% of binding).
(§3) The tubes were incubated at room temperature on a shaker for 1 h, and centrifuged at 5000 g for 5 minutes to separate the HA from the supernatant. sCT concentration in the supernatant was determined using the BCA microprotein assay (Pierce, USA) as described above. HA centrifugate remaining after removal of supernatant was washed five times using 1 mL buffer each time and the last washing after centrifugation at 5000 g for 5 minutes was collected. Both the washings and the HA centrifugate were then analyzed for sCT as described above. The amount of sCT in the supernatant, washings and HA centrifugate was then inferred by measuring the absorbance at 562 nm, with a value of 100% for control samples without HA.
(§4) Bone mineral specificity of sCT analogue was then determined in the above manner using HA, calcium carbonate, calcium pyrophosphate, tricalcium phosphate and calcium oxalate.

[3] = Effect on plasma calcium level in normal rats (SMCC series); assay type: in vivo, rat; conditions: 20 IU sCT/kg equivalent, subcutaneous
Description: as §1, with “5 was sub cu injected and” for “5 was injected and”

[4] = Bone mineral specificity: calcium pyrophosphate binding assay; conditions: 1 h, 100 mM phosphate buffer pH 7
Description: as §2, §3, §4

[5] = Bone mineral specificity: tri-calcium phosphate binding assay; conditions: 1 h, 100 mM phosphate buffer pH 7
Description: as §2, §3, §4

[6] = Bone mineral specificity: calcium carbonate binding assay; conditions: 1 h, 100 mM phosphate buffer pH 7
Description: as §2, §3, §4

[7] = first hour, vs acetate buffer controls

Salmon calcitonin [sCT, reference compound]
cytotoxicity (absorbance of formazan solution) compared to untreated media (RAW 264.7 cells): low levels of cytotoxicity
percentage of plasma calcium reduction ([1]; 4 hour post dosing): 33.1±2.1%
percentage of plasma calcium reduction [1, 7]: 20.4±5.5%
percentage of plasma calcium reduction ([1]; second hour): 29.9±4.9%
sCT recovered in supernatant after incubation with Calcium oxalate [2]: did not significantly reduce the sCT concentration in the supernatant
percentage of plasma calcium reduction ([3]; 4 hour post dosing): 32.03±2.11%
percentage of plasma calcium reduction [3, 7]: 20.33±5.5%
percentage of plasma calcium reduction ([3]; second hour): 28.98±4.65%
percentage of plasma calcium reduction ([3]; third hour): 29.85±4.11%
sCT recovered in supernatant after incubation with Calcium Pyrophosphate [4]: did not significantly reduce the sCT concentration in the supernatant
sCT bound to Tri-Calcium Phosphate [5]: no significant difference in the affinity
sCT concentration in supernatant after incubation with Calcium carbonate [6]: did not significantly reduce the sCT concentration in the supernatant
